Like-named read-outs stand apart in the source and are kept apart here.

The target of one assay is CMP-KDO synthetase (Escherichia coli, UniProt P04951). As to the kind of experiment: Inhibition of CMP-KDO synthetase activity (colorimetric phosphate). Format: biochemical, gram-negative bacteria. The procedure: The inhibition of CMP-KDO synthetase activity was measured in reaction mixtures buffered at pH 9.5 containing: 2 mM KDO, 5 mM magnesium cytidine triphosphate, and inorganic pyrophosphatase. The pyrophosphate generated during the course of enzyme reaction was cleaved by the pyrophosphatase to inorganic orthophosphate, the level of which was measured colorimetrically. […] Potency was assessed by determining the level of inhibitor required to inhibit the enzyme reaction by 50% under the conditions of the assay described above (I50). A potent inhibitor is defined as one having an I50 of 1 mM or less.

The next assay deals with Escherichia Coli Juhl. As to the kind of experiment: Mouse protection assay, Escherichia Coli Juhl. Conditions: mice infected with lethal dose of Escherichia Coli Juhl. The format is in vivo. The procedure: (§1) Antibacterial activity of the compounds were tested in a mouse protection assay against Escherichia Coli Juhl, Serratia marcescens and the gram positive bacterium Staphylococcus aureus.

In another assay the test system is Serratia marcescens. Briefly: Mouse protection assay, Serratia marcescens. The format is in vivo. The settings on record: mice infected with lethal dose of Serratia marcescens. The procedure:
as §1

CMP-KDO synthetase, sequence (P04951 whole entry): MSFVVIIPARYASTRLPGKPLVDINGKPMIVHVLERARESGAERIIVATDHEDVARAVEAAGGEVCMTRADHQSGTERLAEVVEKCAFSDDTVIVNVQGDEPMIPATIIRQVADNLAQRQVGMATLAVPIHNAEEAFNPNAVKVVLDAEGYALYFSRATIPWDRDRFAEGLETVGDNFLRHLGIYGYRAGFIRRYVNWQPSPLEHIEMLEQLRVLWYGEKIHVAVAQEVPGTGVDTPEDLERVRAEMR

On CMP-KDO synthetase, `NC[C@@H](O)[C@H]1OC(O)(C(=O)O)C[C@@H](O)[C@H]1O` (stereo partly drawn) [Example 1, 8-Amino-3,8-dideoxy-D-manno-2-octulosonate] had an IC50 of 310 µM. Also, the ED50 in the assay on Escherichia Coli Juhl was 25 mg/kg; with Serratia marcescens it was 30 mg/kg.

With `NC[C@@H](O)[C@H]1O[C@H](C(=O)O)C[C@@H](O)[C@H]1O` [Example 2, α-C-[1,5-anhydro-7-amino-2,7-dideoxy-D-manno-heptopyranosyl]-carboxylate], on CMP-KDO synthetase, the IC50 worked out at 7 µM. The figures for the ED50 with Escherichia Coli Juhl and in the assay with Serratia marcescens were 3.1 mg/kg and 6.3 mg/kg, respectively.

`NCC(=O)NCC(=O)NC[C@@H](O)[C@H]1O[C@H](C(=O)O)C[C@@H](O)[C@H]1O` [Example 3, α-C-[1,5-anhydro-7-(glycyl-glycylamino)-2,7-dideoxy-D-manno-heptopyranosyl]-carboxylate]: at CMP-KDO synthetase, the IC50 came out at 230 µM. The ED50 in the assay with Escherichia Coli Juhl worked out at 6.3 mg/kg; in the assay on Serratia marcescens, 12.5 mg/kg.

The molecule `CNC[C@@H](O)[C@H]1OC(O)(C(=O)O)C[C@@H](O)[C@H]1O` (stereo partly drawn) [Example 4, 8-Methylamino-3,8-dideoxy-D-manno-2-octulosonate] came in with an IC50 on CMP-KDO synthetase of 81 µM.

As to `CN(C)C[C@@H](O)[C@H]1OC(O)(C(=O)O)C[C@@H](O)[C@H]1O` (stereo partly drawn) [Example 5, 8-Dimethylamino-3,8-dideoxy-D-manno-2-octulosonate], on CMP-KDO synthetase, the IC50 is 220 µM.

Consider `CCNC[C@@H](O)[C@H]1OC(O)(C(=O)O)C[C@@H](O)[C@H]1O` (stereo partly drawn) [Example 6, 8-Ethylamino-3,8-dideoxy-D-manno-2-octulosonate], for which the IC50 against CMP-KDO synthetase was found to be 70 µM.

For the molecule `NCC[C@@H](O)[C@H]1O[C@H](C(=O)O)C[C@@H](O)[C@H]1O` [Example 7, α-C-[1,5 Anhydro-8-amino-2,7,8-trideoxy-D-mannooctopyranosyl] carboxylate], the IC50 on CMP-KDO synthetase (pH 9.5, 2 mM KDO, 5 mM magnesium cytidine triphosphate, inorganic pyrophosphatase, read-out: I50) worked out at 1.9 µM.

The values are drawn from patent US4613590A, “Amino D-manno-2-octulopyranosidonate containing compounds, pharmaceutical compositions and method of use” (Abbott Laboratories, priority 1985, dated 1986).
